Measured values as given in PubChem BioAssay AID2060904 (Molecular Pharmacology Branch, DTP, NCI, 2025).

Test system: 349418-098-R-PDC complex spheroid viability
Assay: Anticancer human tumor 349418-098-R-PDC patient-derived lung adenocarcinoma cell line growth inhibition [RAS]
Details: for IC50: curve of first compound; for viability, T/C: stronger effect = lower value
Procedure, shortened: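 Tumour cells grown as complex spheroids with HUVEC endothelial cells and mesenchymal stem cells, treated with RAS pathway inhibitor combinations. Each agent spans half-log steps from near clinical Cmax, or 10 microM where Cmax is unknown.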

[1] = second compound 0.00316 µM, first compound 0.00316 µM
[2] = second compound 0.00316 µM, first compound 0.01 µM
[3] = second compound 0.00316 µM, first compound 0.0316 µM
[4] = second compound 0.00316 µM, first compound 0.1 µM
[5] = second compound 0.00316 µM, first compound 0.316 µM
[6] = second compound 0.00316 µM, first compound 1 µM
[7] = second compound 0.01 µM, first compound 0.00316 µM
[8] = second compound 0.01 µM, first compound 0.01 µM
[9] = second compound 0.01 µM, first compound 0.0316 µM
[10] = second compound 0.01 µM, first compound 0.1 µM
[11] = second compound 0.01 µM, first compound 0.316 µM
[12] = second compound 0.01 µM, first compound 1 µM
[13] = second compound 0.0316 µM, first compound 0.00316 µM
[14] = second compound 0.0316 µM, first compound 0.01 µM
[15] = second compound 0.0316 µM, first compound 0.0316 µM
[16] = second compound 0.0316 µM, first compound 0.1 µM
[17] = second compound 0.0316 µM, first compound 0.316 µM
[18] = second compound 0.0316 µM, first compound 1 µM
[19] = second compound 0.1 µM, first compound 0.00316 µM
[20] = second compound 0.1 µM, first compound 0.01 µM
[21] = second compound 0.1 µM, first compound 0.0316 µM
[22] = second compound 0.1 µM, first compound 0.1 µM
[23] = second compound 0.1 µM, first compound 0.316 µM
[24] = second compound 0.1 µM, first compound 1 µM
[25] = second compound 0.316 µM, first compound 0.00316 µM
[26] = second compound 0.316 µM, first compound 0.01 µM
[27] = second compound 0.316 µM, first compound 0.0316 µM
[28] = second compound 0.316 µM, first compound 0.1 µM
[29] = second compound 0.316 µM, first compound 0.316 µM
[30] = second compound 0.316 µM, first compound 1 µM
[31] = second compound 1 µM, first compound 0.00316 µM
[32] = second compound 1 µM, first compound 0.01 µM
[33] = second compound 1 µM, first compound 0.0316 µM
[34] = second compound 1 µM, first compound 0.1 µM
[35] = second compound 1 µM, first compound 0.316 µM
[36] = second compound 1 µM, first compound 1 µM
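Note: spheroids exposed to compound for seven days before viability readout.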

Q: Which IC50 (second compound 0.00316 µM) does the source give for `C=CC(=O)Nc1cc(Nc2nccc(-c3cn(C)c4ccccc34)n2)c(OC)cc1N(C)CCN(C)C` + C=CC(=O)N1CCN(c2nc(OCC3CCCN3C)nc3c(F)c(-c4nc(N)cc(C)c4C(F)(F)F)c(Cl)cc23)C(C)C1 here?
A: Its IC50 is greater than 1000 nM.

Q: And the IC50 (second compound 0.01 µM)?
A: The IC50 was greater than 1000 nM.

Q: And the IC50 (second compound 0.0316 µM)?
A: Its IC50 is greater than 1000 nM.

Q: What about the IC50 (second compound 0.1 µM) of the same compound?
A: Its IC50 is greater than 1000 nM.

Q: What about the IC50 (second compound 0.316 µM) of the same compound?
A: The IC50 was greater than 1000 nM.

Q: And the IC50 (second compound 1 µM)?
A: The IC50 was greater than 1000 nM.

Q: What about the viability, T/C [1] of the same compound?
A: The viability, T/C was 80.7%.

Q: What about the viability, T/C [2] of the same compound?
A: Its viability, T/C is 119%.

Q: And the viability, T/C [3]?
A: The viability, T/C was 91.5%.

Q: And the viability, T/C [4]?
A: Its viability, T/C is 69.9%.

Q: And the viability, T/C [5]?
A: The viability, T/C was 64.8%.

Q: What about the viability, T/C [6] of the same compound?
A: Its viability, T/C is 72.9%.

Q: What about the viability, T/C [7] of the same compound?
A: The viability, T/C was 83.7%.

Q: What about the viability, T/C [8] of the same compound?
A: The viability, T/C was 97.5%.

Q: What about the viability, T/C [9] of the same compound?
A: The viability, T/C was 90.5%.

Q: What about the viability, T/C [10] of the same compound?
A: The viability, T/C was 71.8%.

Q: What about the viability, T/C [11] of the same compound?
A: The viability, T/C was 61.3%.

Q: What about the viability, T/C [12] of the same compound?
A: The viability, T/C was 56.6%.

Q: What about the viability, T/C [13] of the same compound?
A: Its viability, T/C is 86.6%.

Q: And the viability, T/C [14]?
A: Its viability, T/C is 129%.

Q: And the viability, T/C [15]?
A: The viability, T/C was 86.1%.

Q: And the viability, T/C [16]?
A: The viability, T/C was 96%.

Q: And the viability, T/C [17]?
A: The viability, T/C was 80.5%.

Q: What about the viability, T/C [18] of the same compound?
A: Its viability, T/C is 52.8%.

Q: And the viability, T/C [19]?
A: Its viability, T/C is 65.5%.

Q: What about the viability, T/C [20] of the same compound?
A: The viability, T/C was 123%.

Q: And the viability, T/C [21]?
A: The viability, T/C was 89.4%.

Q: And the viability, T/C [22]?
A: The viability, T/C was 75.4%.

Q: And the viability, T/C [23]?
A: Its viability, T/C is 87.9%.

Q: And the viability, T/C [24]?
A: Its viability, T/C is 69.2%.

Q: And the viability, T/C [25]?
A: The viability, T/C was 74.9%.

Q: And the viability, T/C [26]?
A: Its viability, T/C is 99.9%.

Q: And the viability, T/C [27]?
A: Its viability, T/C is 100%.

Q: What about the viability, T/C [28] of the same compound?
A: The viability, T/C was 117%.

Q: And the viability, T/C [29]?
A: Its viability, T/C is 82.6%.

Q: And the viability, T/C [30]?
A: The viability, T/C was 67%.

Q: What about the viability, T/C [31] of the same compound?
A: The viability, T/C was 90.8%.

Q: What about the viability, T/C [32] of the same compound?
A: Its viability, T/C is 96.9%.

Q: And the viability, T/C [33]?
A: The viability, T/C was 81.7%.

Q: What about the viability, T/C [34] of the same compound?
A: Its viability, T/C is 88.4%.

Q: And the viability, T/C [35]?
A: Its viability, T/C is 88.6%.

Q: And the viability, T/C [36]?
A: The viability, T/C was 65.6%.

Q: What does the source list for `CC(Nc1ccc2c(c1)OCCn1cc(N3C(=O)OCC3C(F)F)nc1-2)C(N)=O` (stereo unspecified) + C=CC(=O)N1CCN(c2nc(OCC3CCCN3C)nc3c(F)c(-c4nc(N)cc(C)c4C(F)(F)F)c(Cl)cc23)C(C)C1?
A: IC50 (second compound 0.00316 µM): 72.4 nM; IC50 (second compound 0.01 µM): 149 nM; IC50 (second compound 0.0316 µM): 195 nM; IC50 (second compound 0.1 µM): 114 nM; IC50 (second compound 0.316 µM): 57.8 nM; IC50 (second compound 1 µM): 129 nM; viability, T/C [3]: 66%; viability, T/C [4]: 44.4%; viability, T/C [5]: 23.6%; viability, T/C [6]: 16.7%; viability, T/C (second compound 0.00316 µM, first compound 3.16 µM): 14.8%; viability, T/C (second compound 0.00316 µM, first compound 10 µM): 9.03%; viability, T/C [9]: 82%; viability, T/C [10]: 57.6%; viability, T/C [11]: 36.1%; viability, T/C [12]: 17.8%; viability, T/C (second compound 0.01 µM, first compound 3.16 µM): 14.9%; viability, T/C (second compound 0.01 µM, first compound 10 µM): 8.95%; viability, T/C [15]: 91%; viability, T/C [16]: 69.8%; viability, T/C [17]: 36%; viability, T/C [18]: 17.1%; viability, T/C (second compound 0.0316 µM, first compound 3.16 µM): 12.2%; viability, T/C (second compound 0.0316 µM, first compound 10 µM): 13%; viability, T/C [21]: 46.2%; viability, T/C [22]: 58.9%; viability, T/C [23]: 30%; viability, T/C [24]: 19.3%; viability, T/C (second compound 0.1 µM, first compound 3.16 µM): 17.6%; viability, T/C (second compound 0.1 µM, first compound 10 µM): 11.4%; viability, T/C [27]: 55.8%; viability, T/C [28]: 44.9%; viability, T/C [29]: 30.3%; viability, T/C [30]: 19.4%; viability, T/C (second compound 0.316 µM, first compound 3.16 µM): 14%; viability, T/C (second compound 0.316 µM, first compound 10 µM): 10.7%; viability, T/C [33]: 61.2%; viability, T/C [34]: 57.3%; viability, T/C [35]: 28.4%; viability, T/C [36]: 24.4%; viability, T/C (second compound 1 µM, first compound 3.16 µM): 16.6%; viability, T/C (second compound 1 µM, first compound 10 µM): 11.3%

Q: Which results are given for `O=C(c1ccc(F)c(F)c1Nc1ccc(I)cc1F)N1CC(O)([C@@H]2CCCCN2)C1` + C=CC(=O)N1CCN(c2nc(OCC3CCCN3C)nc3c(F)c(-c4nc(N)cc(C)c4C(F)(F)F)c(Cl)cc23)C(C)C1?
A: IC50 (second compound 0.00316 µM): < 3.16 nM; IC50 (second compound 0.01 µM): < 3.16 nM; IC50 (second compound 0.0316 µM): < 3.16 nM; IC50 (second compound 0.1 µM): < 3.16 nM; IC50 (second compound 0.316 µM): < 3.16 nM; IC50 (second compound 1 µM): < 3.16 nM; viability, T/C [1]: 39.9%; viability, T/C [2]: 32.3%; viability, T/C [3]: 28.5%; viability, T/C [4]: 12.9%; viability, T/C [5]: 5.88%; viability, T/C [6]: 4.12%; viability, T/C [7]: 37.7%; viability, T/C [8]: 28.2%; viability, T/C [9]: 24.3%; viability, T/C [10]: 13.2%; viability, T/C [11]: 7.23%; viability, T/C [12]: 4.54%; viability, T/C [13]: 39%; viability, T/C [14]: 32.8%; viability, T/C [15]: 28.5%; viability, T/C [16]: 15.1%; viability, T/C [17]: 6.99%; viability, T/C [18]: 4.79%; viability, T/C [19]: 36.4%; viability, T/C [20]: 33.6%; viability, T/C [21]: 26.6%; viability, T/C [22]: 13.5%; viability, T/C [23]: 6.66%; viability, T/C [24]: 4.97%; viability, T/C [25]: 29.1%; viability, T/C [26]: 32.5%; viability, T/C [27]: 32.4%; viability, T/C [28]: 12%; viability, T/C [29]: 7.61%; viability, T/C [30]: 5.27%; viability, T/C [31]: 42.3%; viability, T/C [32]: 38.8%; viability, T/C [33]: 26.8%; viability, T/C [34]: 16.4%; viability, T/C [35]: 7.89%; viability, T/C [36]: 5%
